Inhibition and melting point data for ten compounds are collected here from patent US7456288B2, “Heterocyclic compounds and methods of making and using thereof” (Reddy US Therapeutics, Inc., priority 2003, dated 2008).

One data set relates to IL-6. Nature of the data set: Glycated albumin-stimulated endothelial cell production of cytokine IL-6 (ELISA). The note with it: read-out: % of inhibition of proinflammatory cytokine IL-6. It counts as cell-based. The source says: The effectiveness of the compounds of the present invention in inhibiting glycated protein- and AGE-induced inflammation can be determined using the assays described herein and in U.S. Provisional Patent Application Ser. No. 60/259,306, which is incorporated by reference in herein its entirety. Such assays comprise measurement of the specific activity of biological components involved in a known cellular response. The assays provide a measurable response in which the activity of the compounds is determined. One aspect of the present invention comprises measurement of the effects of compounds on an inflammatory response by cells to the presence of a stimulating agent. […] The amount of cytokines produced is determined by measurement protocols known to those skilled in the art. The compounds of the present invention are then added to the assay and the production of cytokines is measured. From the comparison of the assay without the compound with the assay with the compound, the biological effect of the compound can be determined. […]
Assays comprise endothelial cells that are stimulated in an inflammatory response by the presence of the glycated protein, glycated human serum albumin. […] Preferably, although not required, the amount of cytokine produced is determined using immunological methods, such as ELISA assays. […]

The subject of another data set is MCP-1. Nature of the data set: Glycated albumin-stimulated endothelial cell production of cytokine MCP-1 (ELISA). It counts as cell-based. The note with it: read-out: % of inhibition of proinflammatory cytokine MCP-1; for inhibition at 5 µM: concentration 5 μM. From the text: The effectiveness of the compounds of the present invention in inhibiting glycated protein- and AGE-induced inflammation can be determined using the assays described herein and in U.S. Provisional Patent Application Ser. No. 60/259,306, which is incorporated by reference in herein its entirety. Such assays comprise measurement of the specific activity of biological components involved in a known cellular response. The assays provide a measurable response in which the activity of the compounds is determined. One aspect of the present invention comprises measurement of the effects of compounds on an inflammatory response by cells to the presence of a stimulating agent. Yet another aspect of the present invention includes an assay comprising endothelial cells that are stimulated by the addition of a glycated protein, the stimulating agent. The endothelial cells respond by producing specific cytokines. The amount of cytokines produced is determined by measurement protocols known to those skilled in the art. The compounds of the present invention are then added to the assay and the production of cytokines is measured. From the comparison of the assay without the compound with the assay with the compound, the biological effect of the compound can be determined. The compound may have an inhibitory effect, a stimulatory effect, or no effect at all. Compounds for treatment of inflammation include those that have an inhibitory effect.
Assays comprise endothelial cells that are stimulated in an inflammatory response by the presence of the glycated protein, glycated human serum albumin. Such endothelial cells produce cytokines. A method in accordance with the present invention comprises measurement of the amount of the cytokine IL-6, and another aspect of the present invention comprises measurement of the amount of the cytokine MCP-1. Preferably, although not required, the amount of cytokine produced is determined using immunological methods, such as ELISA assays. The methods of the present invention are not limited by the type of assay used to measure the amount of cytokine produced, and any methods known to those skilled in the art and later developed can be used to measure the amount of cytokines produced in response to the stimulating agent and to the compound having unknown activity.
Glycated albumin stimulates endothelial production of IL-6 and MCP-1. […] Because of the well established role of these cytokines in vascular diseases, screening for compounds that block AGE-induction of these cytokines provides a novel approach for identifying therapeutic agents that block AGE-induced inflammation in vivo.
Once the baseline response to the stimulating agent for the production of cytokines by the endothelial cells is established, thus comprising the control levels for the screening assay, the methods comprise addition of compounds having unknown activities. The effect of the compound on the baseline response is determined by comparing the amount of cytokine produced in the presence of the stimulating agent and the amount of cytokine produced in the presence of the stimulating agent and the compound of the present invention. In one method, compounds that have inhibitory effects on the inflammation of the cells in the presence of glycated albumin are then used as therapeutic agents. One or more compounds may be added to the screening assay. Combinations or mixtures of compounds can be added. Different amounts and formulations of the compounds are added to determine the effects on the screening assay. The screening assay also may be used to determine stimulatory compounds or compounds that have no effects in the assay.

Regarding `C/C(=C1\SC(=O)NC1=O)c1ccc(OCCOc2c(-c3ccc(Cl)cc3)n(C)c3ccccc3c2=O)cc1`, the inhibition at 5 µM in the data set on IL-6 (concentration 5 μM) stood at 49%.
As for `Cn1c(-c2ccc(Br)cc2)c(OCCOc2ccc(/C=C3/SC(=O)NC3=O)cc2)c(=O)c2ccccc21`, in the data set on MCP-1, the inhibition at 5 µM worked out at 44%.
With `C/C(=C1\SC(=O)NC1=O)c1ccc(OCCOc2c(-c3ccc(F)c(F)c3)n(C)c3ccccc3c2=O)cc1`, in the data set with MCP-1 (concentration 4.4 μM), the inhibition at 4.4 µM stood at 50%.
In the case of `C/C(=C1/SC(=O)NC1=O)c1ccc(OCCOc2c(-c3ccc(F)c(F)c3)n(C)c3ccccc3c2=O)c(Cl)c1`, the inhibition at 5 µM in the data set with MCP-1 worked out at 61%.
With `CCn1c(-c2ccc(F)cc2)c(OCCOc2ccc(/C(C)=C3/SC(=O)NC3=O)cc2)c(=O)c2ccccc21`, the inhibition at 6.5 µM in the data set on MCP-1 (concentration 6.5 μM) was 50%.
For `C/C(=C1\SC(=O)NC1=O)c1ccc(OCCOc2c(-c3ccc(F)c(F)c3)n(C)c3ccccc3c2=O)c(F)c1`, the inhibition at 7 µM in the data set with MCP-1 (concentration 7 μM) turned out to be 50%.
In the case of `COc1cc(OC)c2c(=O)c(OCCOc3ccc(/C(C)=C4\SC(=O)NC4=O)cc3)c(-c3ccc(OC)c(OC)c3)oc2c1` [Example 1, 5-[-1-(4-{2-[2-(3,4-Dimethoxyphenyl)-5,7-dimethoxy-4-oxo-4h-3-chromenyloxy]ethoxy}phenyl)ethylidene]-1,3-thiazolane-2,4-dione], the melting point was in the range of 205 to 206 °C.
Same read-out and setting: the same measure for `CCCc1nn(C)c2c(=O)n(CCNc3ccc(/C(C)=C4\SC(=O)NC4=O)cc3)c(-c3ccc(OC)c(OC)c3)nc12` [Example 46, 5-[(E,Z)-1-(4-{2-[5-(3,4-Dimethoxyphenyl)-1-methyl-7-oxo-3-propyl-6,7-dihydro-1H-pyrazolo[4,3-d]pyrimidin-6-yl]ethylamino}phenyl)ethylidene]1,3-thiazolane-2,4-dione]: 215 to 218 °C.
As to `C/C(=C1\SC(=O)NC1=O)c1ccc(OCCOc2c(-c3ccc(F)cc3)n(C)c3ccccc3c2=O)cc1` [drawing 117], the inhibition at 4.64 µM in the data set on IL-6 (concentration 4.64 μM) was 50%.
With `C/C(=C1\SC(=O)NC1=O)c1ccc(OCCOc2c(-c3ccc(F)cc3)n(C)c3ccccc3c2=O)cc1` [drawing 118], the inhibition at 7.9 µM in the data set on MCP-1 (concentration 7.9 μM) came out at 50%.
